We go through 31 compounds from patent US10654816B2, “Compounds and compositions for treating conditions associated with NLRP activity” (NOVARTIS INFLAMMASOME RESEARCH, INC., priority 2017, dated 2020).

This assay has as its system IL-1β production in PMA-differentiated THP-1 cells. Kind of assay: IL-1β production in PMA-differentiated THP-1 cells stimulated with gramicidin (hTHP-1 assay, HTRF readout; Procedures 1-3). The assay is classed as cell-based, human. The following applies: Homo sapiens, THP-1, hTHP-1 assay containing 2% fetal bovine serum, average, read-out: hTHP-1 IC50 (Average IC50 of compounds in hTHP-1 assay). The method in brief: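 PMA-differentiated (20 ng/ml, 16-18 h) THP-1 cells in RPMI with 2% FBS, 50,000 cells/well, preincubated 1 h with compound (final 0.0017-100 μM, 0.37% DMSO), then stimulated with 5 μM gramicidin for 2 h. IL-1β in cell-free supernatant measured by HTRF (620/668 nm).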
A general note: In TR-FRET formats the signal depends on donor and acceptor labels being close together.

Read-outs that look alike come from different tables or passages of the source. Some results are limits rather than exact numbers.

On to `Cn1ncc2cc(S(N)(=O)=NC(=O)Nc3c4c(cc5c3CCC5)CCC4)ccc21` (single isomer, unassigned) [Example 397, (R) or (S)-N′-((1,2,3,5,6,7-hexahydro-s-indacen-4-yl)carbamoyl)-1-methyl-1H-indazole-5-sulfonimidamide], for which the half-inhibitory concentration (IC50) (class symbols) lay within 1000 to 5000 nM. For `Cn1ncc2cc(S(N)(=O)=NC(=O)Nc3c4c(cc5c3CCC5)CCC4)ccc21` (single isomer, unassigned) [Example 398, (S) or (R)-N′-((1,2,3,5,6,7-hexahydro-s-indacen-4-yl)carbamoyl)-1-methyl-1H-indazole-5-sulfonimidamide], the IC50 (given as bound) is above 30000 nM. Same read-out and setting: as for `CC(C)c1ccc(S(N)(=O)=NC(=O)Nc2c3c(cc4c2CCC4)CCC3)cn1` (single isomer, unassigned) [Example 401, (R) or (S)-N′-((1,2,3,5,6,7-hexahydro-s-indacen-4-yl)carbamoyl)-6-isopropylpyridine-3-sulfonimidamide], the figure is above 30000 nM. Regarding `CC(C)c1ccc(S(N)(=O)=NC(=O)Nc2c3c(cc4c2CCC4)CCC3)cn1` (single isomer, unassigned) [Example 402, (S) or (R)-N′-((1,2,3,5,6,7-hexahydro-s-indacen-4-yl)carbamoyl)-6-isopropylpyridine-3-sulfonimidamide], under “class symbols”, the IC50 lay in the range of 1000 to 5000 nM. As to `CC(C)c1csc(S(N)(=O)=NC(=O)Nc2c3c(cc4c2CCC4)CCC3)c1` (single isomer, unassigned) [Example 406, (S) or (R)-N′-((1,2,3,5,6,7-hexahydro-s-indacen-4-yl)carbamoyl)-4-isopropylthiophene-2-sulfonimidamide], under “given as bound”, the IC50 was […]. Turning to `NCc1ccc(S(N)(=O)=NC(=O)Nc2c3c(cc4c2CCC4)CCC3)cc1` (single isomer, unassigned) [Example 411, (R) or (S)-4-(aminomethyl)-N′-((1,2,3,5,6,7-hexahydro-s-indacen-4-yl)carbamoyl)benzene-sulfonimidamide], under “class symbols”, the IC50 was in the range of 1000 to 5000 nM. Turning to `NCc1ccc(S(N)(=O)=NC(=O)Nc2c3c(cc4c2CCC4)CCC3)cc1` (single isomer, unassigned) [Example 412, (S) or (R)-4-(aminomethyl)-N′-((1,2,3,5,6,7-hexahydro-s-indacen-4-yl)carbamoyl)benzene-sulfonimidamide], the concentration for half-maximal inhibition (IC50) (given as bound) is above 30000 nM. On the same count and under the same terms, as for `CC(C)Cc1ccc(S(N)(=O)=NC(=O)Nc2c3c(cc4c2CCC4)CCC3)cn1` (single isomer, unassigned) [Example 415, (R) or (S)-N′-((1,2,3,5,6,7-hexahydro-s-indacen-4-yl)carbamoyl)-6-isobutylpyridine-3-sulfonimidamide], the figure is above 30000 nM. With `CC(C)Cc1ccc(S(N)(=O)=NC(=O)Nc2c3c(cc4c2CCC4)CCC3)cn1` (single isomer, unassigned) [Example 416, (S) or (R)-N′-((1,2,3,5,6,7-hexahydro-s-indacen-4-yl)carbamoyl)-6-isobutylpyridine-3-sulfonimidamide], the IC50 (class symbols) fell in the range of 200 to 1000 nM.

Consider `CC(C)c1cc(-c2ccccc2CO)cc(C(C)C)c1NC(=O)N=S(N)(=O)c1ccc(CN(C)C)cc1` (stereo not shown) [Compound 249], for which the half-maximal inhibitory concentration (IC50) (given as bound) is above 30000 nM. For the compound `Cc1oc(S(N)(=O)=NC(=O)Nc2c3c(cc4c2CCC4)CCC3)cc1C(C)(C)O` (stereo not shown) [Example 1, N′-(1,2,3,5,6,7-hexahydro-s-indacen-4-ylcarbamoyl)-4-(2-hydroxypropan-2-yl)-5-methylfuran-2-sulfonimidamide], the IC50 (class symbols) is 8 to 40 nM. On the same count and under the same terms, as for `Cc1oc([S@@](N)(=O)=NC(=O)Nc2c3c(cc4c2CCC4)CCC3)cc1C(C)(C)O` [Example 2, (S)—N′-(1,2,3,5,6,7-hexahydro-s-indacen-4-ylcarbamoyl)-4-(2-hydroxypropan-2-yl)-5-methylfuran-2-sulfonimidamide], the figure is 8 to 40 nM; as for `CC(C)(O)c1ncc(S(N)(=O)=NC(=O)Nc2c3c(cc4c2CCC4)CCC3)s1` (stereo not shown) [Example 4, N′-(1,2,3,5,6,7-hexahydro-s-indacen-4-ylcarbamoyl)-2-(2-hydroxvpropan-2-yl)thiazole-5-sulfonimidamide], […]. On the same count and under the same terms, with `CC(C)(C)OC(=O)NS(=O)(=NC(=O)Nc1c2c(cc3c1CCC3)CCC2)c1cnc(C(C)(C)O)s1` (stereo not shown) [Example 7, Tert-butyl N-(1,2,3,5,6,7-hexahydro-s-indacen-4-ylcarbamoyl)-2-(2-hydroxypropan-2-yl)thiazole-5-sulfonimidoylcarbamate] the figure was 200 to 1000 nM.

For `Cc1cc(NC(=O)N=S(N)(=O)c2cc(C)c(C(C)(C)O)s2)cc(C)n1` (stereo not shown) [Example 9, N′-((2,6-dimethylpyridin-4-yl)carbamoyl)-4-methyl-5-(2-hydroxypropan-2-yl)thiophene-2-sulfonimidamide], the IC50 (given as bound) was above 30000 nM. Take `Cc1oc(S(N)(=O)=NC(=O)Nc2c(C(C)C)cc(F)cc2C(C)C)cc1C(C)(C)O` (stereo not shown) [Example 10, N′-(4-fluoro-2,6-diisopropylphenylcarbamoyl)-4-(2-hydroxypropan-2-yl)-5-methylfuran-2-sulfonimidamide]: the half-maximal inhibitory concentration (IC50) (class symbols) lay within 40 to 200 nM. As for `CC(C)c1cc(F)cc(C(C)C)c1NC(=O)N=S(N)(=O)c1ccc(C(C)(C)O)cc1` (stereo not shown) [Example 11, N′-(4-fluoro-2,6-diisopropylphenylcarbamoyl)-4-(2-hydroxypropan-2-yl)benzenesulfonimidamide], the IC50 (class symbols) lay within 5000 to 30000 nM.

As to `Cc1sc(S(N)(=O)=NC(=O)Nc2c3c(cc4c2CCC4)CCC3)cc1C(C)(C)O` (stereo not shown) [Example 12, N′-(1,2,3,5,6,7-hexahydro-s-indacen-4-ylcarbamoyl)-4-(2-hydroxypropan-2-yl)-5-methylthiophene-2-sulfonimidamide], the IC50 (class symbols) lay within 40 to 200 nM. Still for that read-out and setting: with `CC(C)c1cc(OC(F)F)cc(C(C)C)c1NC(=O)N=S(N)(=O)c1sc(C(C)(C)O)cc1F` (stereo not shown) [Example 17, N′-(4-(difluoromethoxy)-2,6-diisopropylphenylcarbamoyl)-3-fluoro-5-(2-hydroxypropan-2-yl)thiophene-2-sulfonimidamide] the figure was 8 to 40 nM; with `CCc1cc(OC(F)F)cc(C(C)C)c1NC(=O)N=S(N)(=O)c1cnc(C(C)(C)O)s1` (stereo not shown) [Example 18, N′-(4-(difluoromethoxy)-2-ethyl-6-isopropylphenylcarbamoyl)-2-(2-hydroxypropan-2-yl)thiazole-5-sulfonimidamide], 200 to 1000 nM; with `Cc1cc(C(C)(C)O)ccc1S(N)(=O)=NC(=O)Nc1c2c(cc3c1CCC3)CCC2` (stereo not shown) [Example 19, N′-(1,2,3,5,6,7-hexahydro-s-indacen-4-ylcarbamoyl)-4-(2-hydroxypropan-2-yl)-2-methylbenzenesulfonimidamide], 1000 to 5000 nM.

Take `CC(C)c1cc(F)cc(C(C)C)c1NC(=O)N=S(N)(=O)c1cccc(C(C)(C)O)c1` (stereo not shown) [Example 22, N′-(4-fluoro-2,6-diisopropylphenylcarbamoyl)-3-(2-hydroxypropan-2-yl)benzenesulfonimidamide]: the half-inhibitory concentration (IC50) (class symbols) lay in the range of 1000 to 5000 nM. The same measure, in the same setting: as for `Cc1cc(C(C)(C)O)sc1S(N)(=O)=NC(=O)Nc1c(C(C)C)cc(OC(F)F)cc1C(C)C` (stereo not shown) [Example 24, N′-(4-(difluoromethoxy)-2,6-diisopropylphenylcarbamoyl)-5-(2-hydroxypropan-2-yl)-3-methylthiophene-2-sulfonimidamide], the figure is 1000 to 5000 nM; as for `CC(C)(O)c1csc(S(N)(=O)=NC(=O)Nc2c3c(c(C#N)c4c2CCC4)CCC3)c1` (stereo not shown) [Example 26, N′-(8-cyano-1,2,3,5,6,7-hexahydro-s-indacen-4-ylcarbamoyl)-4-(2-hydroxypropan-2-yl)thiophene-2-sulfonimidamide], 40 to 200 nM; as for `CC(C)(O)c1ncc(S(N)(=O)=NC(=O)Nc2c3c(c(OC(F)F)c4c2CCC4)CCC3)s1` (stereo not shown) [Example 27, N′-(8-(difluoromethoxy)-1,2,3,5,6,7-hexahydro-s-indacen-4-ylcarbainoyl)-2-(2-hydroxypropan-2-yl)thiazole-5-sulfonimidamide], 200 to 1000 nM. On the same count and under the same terms, as for `Cc1cc(C(C)(C)O)ccc1S(N)(=O)=NC(=O)Nc1c(C(C)C)cc(OC(F)F)cc1C1CC1` (stereo not shown) [Example 29, N′-(2-cyclopropyl-4-(difluoromethoxy)-6-isopropylphenylcarbamoyl)-4-(2-hydroxypropan-2-yl)-2-methylbenzenesulfonimidamide], the figure is 5000 to 30000 nM; as for `Cc1oc(S(N)(=O)=NC(=O)Nc2c(C(C)C)cc(C#N)c(F)c2C(C)C)cc1C(C)(C)O` (stereo not shown) [Example 33, N′-(4-cyano-3-fluoro-2,6-diisopropylphenylcarbamoyl)-4-(2-hydroxypropan-2-yl)-5-methylfuran-2-sulfonimidamide], 40 to 200 nM; as for `CC(C)(O)c1cccc(S(N)(=O)=NC(=O)Nc2c3c(c(F)c4c2CCC4)CCC3)c1` (stereo not shown) [Example 34, N′-(8-fluoro-1,2,3,5,6,7-hexahydro-s-indacen-4-ylcarbamoyl)-3-(2-hydroxypropan-2-yl)benzenesulfonimidamide], 1000 to 5000 nM. The same measure, in the same setting: as for `CC(C)c1cc(C#N)cc(C(C)C)c1NC(=O)N=S(N)(=O)c1ncc(C(C)(C)O)s1` (stereo not shown) [Example 35, N′-(4-cyano-2,6-diisopropylphenylcarbamoyl)-5-(2-hydroxypropan-2-yl)thiazole-2-sulfonimidamide], the figure is 200 to 1000 nM; as for `CC(C)c1cc(F)cc(C(C)C)c1NC(=O)N=S(N)(=O)c1ccc(CN(C)C)cc1` (stereo not shown) [Example 36, 4-((dimethylamino)methyl)-N′-(4-fluoro-2,6-diisopropylphenylcarbamoyl)-benzenesulfoniniidamide], 1000 to 5000 nM. As for `CC(C)c1cc(OC(F)F)cc(C2CC2)c1NC(=O)N=S(N)(=O)c1ccc(CN(C)C)cc1` (stereo not shown) [Example 37, N′-(2-cyclopropyl-4-(difluoromethoxy)-6-isopropylphenylcarbamoyl)-4-((dimethylamino)methyl)benzene sulfonimidamide], the half-maximal inhibitory concentration (IC50) (class symbols) was 1000 to 5000 nM.

As usually defined, the IC50 is the midpoint of a concentration-inhibition curve.
